The numbers were not newly measured in publication PMC6394493 (Cancer Chemotherapy and Pharmacology, 2018), which cites them from elsewhere.

The data set deals with pS6. Also on record: method as in PMID 25673697. The conditions noted are these: patients with advanced solid tumors; cited from earlier work.

`CO[C@H]1C[C@@H]2CC[C@@H](C)[C@@](O)(O2)C(=O)C(=O)N2CCCC[C@H]2C(=O)O[C@H]([C@H](C)C[C@@H]2CC[C@@H](OCCO)[C@H](OC)C2)CC(=O)[C@H](C)/C=C(\C)[C@@H](O)[C@@H](OC)C(=O)[C@H](C)C[C@H](C)/C=C/C=C/C=C/1C` [everolimus]: the “changes in pS6 in skin biopsies” value is recorded as “induce changes in pS6”.
